# Measurements published in patent US20220175675A1, “ENCAPSULATING MOLECULES IN FAT GLOBULES” (The Regents of the University of California, priority 2019, published 2022).
# Legend:
# [1] = Gastric stability of vitamin D3 in simulated gastric fluid (LC-MS); assay type: in vitro ADME; conditions: 2 h, 37° C., pH 3, pepsin
# Procedure: Degradation of VD3 under the simulated gastric conditions was performed on free VD3 and encapsulated VD3. The simulated gastric fluid (SGF) was prepared according to the method of Minekus et al. (2014). In summary, electrolyte solution was prepared in Milli-Q water at 1.25× of the final concentration and stored at 37° C. To prepare 10 mL solution to be used in the digestion procedure: 7.5 mL SGF, 6 mg pepsin solubilized in 1.6 mL SGF, 5 μL of 0.3 M CaCl2(H2O)2 prepared in water and filtered through a 0.22 μm PSE syringe filter. The pH value was corrected to reach 3, and if needed, water was added to reach 10mL (approximately […]). The solution was then placed in a 37° C. incubator to equilibrate. Cream separated at the end of the incubation period with VD3 was suspended in water at 8% w/v and allowed to briefly incubate at 37° C.
# The separated cream (250 mg) containing VD3, obtained as described before, was added to 5 mL of SGF. For the digestion of free VD3 in methanol, 25 μL of 40 mg/mL solution was added to […] of SGF. Solutions were briefly purged with nitrogen and sealed securely. Simulated digestion was carried for 2h at 37° C. At the end of the incubation step, ethanolic pyrogallol solution (10 mL, 1% w/v) was added and vortexed vigorously. Potassium hydroxide (2 mL, 50%w/v) was then added and mixed. […]
# [2] = Loading of vitamin D3 in ovine milk fat globules; assay type: physicochemical; conditions: for EE %, 1% v/v ethanol / EE %, 10% v/v ethanol / LY, 1% v/v ethanol / LY, 10% v/v ethanol: Ovine MFGs, 30 minutes
# Procedure: Raw milk was diluted with Milli-Q water at 9:1 water to milk. Cream was separated from diluted milk via centrifugation at 3,000×g for 5 min. Cream was collected and reconstituted in water at 4% w/v concentration. The mixture was then further centrifuged at 3,000×g for 5 min. The cream was then collected and reconstituted to desired weight/volume in water (20% w/v in water).
# Encapsulation of VD3 was achieved by incubation of compound's ethanolic solution with 20% w/v cream suspended in water. Once well mixed by gently inverting the tube, the contents were allowed to incubate in the dark. […] Significant values were reported with a 95% confidence interval, i.e. p<0.05.
# At the end of the incubation period with VD3, cream was separated by centrifuging the suspension at 3,000×g for 5 min Cream was skimmed off the top with particular care not to include any of the aqueous phase. Methanol was added at 50 mg/mL and vortexed vigorously for 1 min. The mixture was then centrifuged at 3,000×g for 30 min. Liquid phase was collected and absorbance was measured at 264 nm. Absorbance blank was prepared fresh during every encapsulation run by introducing ethanol to cream suspended in water. Absorbance of the blank was subtracted from test samples to remove the absorbance of solvent, lipids, and other MFGs components. All experiments were conducted in triplicates.
# Fat content in cream was measured to calculate the loading yield. The fat was isolated using the same set of preparation steps detailed in Example 13 with the addition of the last centrifugation step to recover cream after at the end of the loading process. The total fat content was determined using a modified Folch method (Folch, Lees, & Sloane-Stanley, 1957) where an additional step of washing the chloroform/water interface with 1:1 water/methanol solution was added to remove milk serum components. The loading yield of VD3 in milk fat was calculated as follows: […]
# where CE is the VD3 extracted from MFGs (μg), and MF is the mass of milk fat (g) in MFGs suspension. The extraction procedure was conducted in triplicates using independent milk samples.
compound,measurement,setting,value
C=C1CC[C@H](O)C/C1=C/C=C1\CCC[C@]2(C)[C@@H]([C@H](C)CCCC(C)C)CC[C@@H]12 [Cholecalciferol],degradation/loss of VD3 in simulated gastric fluid,[1]; listed as free VD3,approximately 6%
same,degradation/loss of VD3 in simulated gastric fluid,[1]; listed as un-encapsulated VD3,approximately 8%
same,"EE %, 1% v/v ethanol",[2]; 50 μM,11.75 ± 0.44%
same,"EE %, 10% v/v ethanol",[2]; 50 μM,37.83 ± 10.36%
same,"LY, 1% v/v ethanol",[2]; 50 μM,11.17 ± 0.41 μg of VD3 per gram of milk fat
same,"LY, 10% v/v ethanol",[2]; 50 μM,35.95 ± 9.85 μg of VD3 per gram of milk fat
same,"EE %, 1% v/v ethanol",[2]; 100 μM,10.70 ± 3.12%
same,"EE %, 10% v/v ethanol",[2]; 100 μM,20.29 ± 4.85 %
same,"LY, 1% v/v ethanol",[2]; 100 μM,20.35 ± 5.93 μg of VD3 per gram of milk fat
same,"LY, 10% v/v ethanol",[2]; 100 μM,38.56 ± 9.23 μg of VD3 per gram of milk fat
same,"EE %, 1% v/v ethanol",[2]; 150 μM,10.17 ± 0.67%
same,"EE %, 10% v/v ethanol",[2]; 150 μM,18.95 ± 6.34 %
same,"LY, 1% v/v ethanol",[2]; 150 μM,29.01 ± 1.92 μg of VD3 per gram of milk fat
same,"LY, 10% v/v ethanol",[2]; 150 μM,54.03 ± 18.08 μg of VD3 per gram of milk fat
same,"EE %, 1% v/v ethanol",[2]; 200 μM,8.49 ± 1.65%
same,"EE %, 10% v/v ethanol",[2]; 200 μM,14.30 ± 3.90 %
same,"LY, 1% v/v ethanol",[2]; 200 μM,32.28 ± 6.26 μg of VD3 per gram of milk fat
same,"LY, 10% v/v ethanol",[2]; 200 μM,54.33 ± 14.83 μg of VD3 per gram of milk fat
same,"EE %, 1% v/v ethanol",[2]; 250 μM,8.13 ± 1.27%
same,"EE %, 10% v/v ethanol",[2]; 250 μM,10.31 ± 1.14 %
same,"LY, 1% v/v ethanol",[2]; 250 μM,38.62 ± 6.06 μg of VD3 per gram of milk fat
same,"LY, 10% v/v ethanol",[2]; 250 μM,49.00 ± 5.43 μg of VD3 per gram of milk fat
same,VD3 loaded into MFGs (up to),[2]; ovine MFGs,≤ 54 μg/g milk fat
